The target of one data set is LepRb-HDAC6 interaction (Mus musculus (Mouse), UniProt Q9Z2V5). Put plainly: LepRb-flag / HDAC6-myc co-immunoprecipitation in HEK293 cells. The note with it: 200 nM for 1 h. Format: cell-based. On the procedure:
It was hypothesized that HDAC6 might interact with leptin receptor b (LepRb). To test this hypothesis, HEK293 cells were transfected with GFP or HDAC6-myc or LepRb-flag or LepRb-flag and HDAC6-myc expressing plasmids. Subsequently, cells were treated either with vehicle or HDAC6 inhibitor (ACY775) (200 nM for 1 h). Then Flag immunoprecipitation was performed to pull down LepRb and subsequently immunoblot these immune-precipitates with Myc and Flag antibodies.
HEK293 cells were transfected with GFP (as control) or HDAC6 or LepRb or LepRb and HDAC6 together. Subsequently cells were either treated with vehicle or HDAC6 inhibitor (ACY775) (200 nM for 1 h). Flag immunoprecipitation was used to pull down LepRb, followed by Myc and Flag immunoblotting.

For a further data set, the system named is HDAC6 in AgRP neurons. The data set is described as follows: DIO mice with HDAC6 deleted in AgRP neurons (HDAC6^Agrp-Δ). Format: in vivo. The protocol:
Design, validation, and stereotaxic injection of AAV viral vector carrying the guide RNAs targeting the mouse HDAC6 genomic locus. Three designed sgRNAs were concatenated and constructed into an AAV vector carrying a cre-enabled mCherry fluorescent marker.
(§1) Following the bilateral injection of AAV-sgHDAC6 into the arcuate nucleus of Agrp-ires-cre::LSL-Cas9-GFP (Agrp-Cre^+/−::Cas9^+/−) or control LSL-Cas9-GFP (Cas9^+/−) mice, immunostaining to detect the expression of mCherry and GFP was performed. AAV-sg-HDAC6 injected Agrp-Cre^+/−::Cas9^+/− (HDAC6^Agrp-Δ) and Cas9^+/− (HDAC6^WT) DIO mice (n=7 for each group) were fasted for 24 hours, and injected with ACY775 (10 mg/kg. i.p). Hourly total dark cycle food intake (g) (n=7 for each group) of these mice after ACY775 injection was measured. Body weight of AAV-sg-HDAC6 injected HDAC6^Agrp-Δ (n=11) and HDAC6^WT (n=6) mice were measured during 3 weeks of ACY775 (10 mg/kg/day, i.p.) treatment. Daily average food intake of HDAC6^Agro-Δ (n=11) and HDAC6^WT (n=6) mice was measured during 3 weeks of ACY775 (10 mg/kg/day, i.p.) treatment. 24-hour food intake average of HDAC Agrp- and HDAC6^WT mice during the 3 weeks of ACY775 treatment was assessed. Serum leptin level (ng/ml) of HDAC6^Agrp-Δ and HDAC6^WT mice after 2 weeks of ACY775 treatment (n=13 for HDAC6^WT and n=18 for HDAC6^Agrp-Δ) was measured. Lean mass (g); fat mass; and fat percentage (%) of HDAC Agrp- and HDAC6^WT DIO mice after 3 weeks of ACY775 treatment was measured by DEXA scan. The HDAC6 inhibitor responsive neurons in the dorsomedial hypothalamus (DMH) were assessed. Immunostaining and quantification of c-Fos expression was performed in the DMH of DIO mice following one-time ACY775 treatment (10 mg/kg, i.p.).

For a further data set, the system named is DMH neurons. Put plainly: ACY775-responsive DMH neurons in TRAP2 DIO mice (c-fos, HDAC6 depletion, caspase3 ablation). Format: in vivo. On the procedure:
as §1
Coordinates used for aav-sg-HDAC6 injection into the DMH of c-Fos-iCreER::LSL-Cas9-GFP (TRAP2-Cas9) mouse, mCherry immunostaining in the aav-sg-HDAC6 injected TRAP2-cas9 obese mice, which were treated three weeks earlier with one dose of ACY775 (10 mg/kg, i.p.) (TRAP2-HDAC6^DMH-Δ) or vehicle (TRAP2-HDAC6^WT), followed by 4-Hydroxytamoxifen (4-OHT) injection, were assessed. TRAP2-HDAC6^WT and TRAP2-HDAC6^DMH-Δ mice were fasted 24-h and treated with ACY775 (10 mg/kg, i.p.). Hourly and total dark cycle food intake (g) (n=4 for each group) was determined for these mice after ACY775 injection. Daily body weight of TRAP2-HDAC6^DMH-Δ (n=10) or TRAP2-HDAC6^WT (n=11) DIO mice was measured during 2 weeks of ACY775 (10 mg/kg/day, i.p) treatment. Daily average food intake of TRAP2-HDAC6^DMH-Δ (n=10) or TRAP2-HDAC6^WT (n=11) DIO mice was measured during 2 weeks of ACY775 treatment.
To investigate whether activity of other neuronal populations are altered after HDAC6 inhibitor treatment, c-fos staining was performed in the whole brain of DIO mice, which were acutely treated with ACY775. […] Some of the DMH neurons express high levels of LepRb and involved in regulation of appetite […]. […]

Data set [1] in a line: Brain/plasma ratio, brain and hypothalamus penetrance. Format: in vivo. The note with it: in words.

Chain of LepRb-HDAC6 interaction (Q9Z2V5 whole entry): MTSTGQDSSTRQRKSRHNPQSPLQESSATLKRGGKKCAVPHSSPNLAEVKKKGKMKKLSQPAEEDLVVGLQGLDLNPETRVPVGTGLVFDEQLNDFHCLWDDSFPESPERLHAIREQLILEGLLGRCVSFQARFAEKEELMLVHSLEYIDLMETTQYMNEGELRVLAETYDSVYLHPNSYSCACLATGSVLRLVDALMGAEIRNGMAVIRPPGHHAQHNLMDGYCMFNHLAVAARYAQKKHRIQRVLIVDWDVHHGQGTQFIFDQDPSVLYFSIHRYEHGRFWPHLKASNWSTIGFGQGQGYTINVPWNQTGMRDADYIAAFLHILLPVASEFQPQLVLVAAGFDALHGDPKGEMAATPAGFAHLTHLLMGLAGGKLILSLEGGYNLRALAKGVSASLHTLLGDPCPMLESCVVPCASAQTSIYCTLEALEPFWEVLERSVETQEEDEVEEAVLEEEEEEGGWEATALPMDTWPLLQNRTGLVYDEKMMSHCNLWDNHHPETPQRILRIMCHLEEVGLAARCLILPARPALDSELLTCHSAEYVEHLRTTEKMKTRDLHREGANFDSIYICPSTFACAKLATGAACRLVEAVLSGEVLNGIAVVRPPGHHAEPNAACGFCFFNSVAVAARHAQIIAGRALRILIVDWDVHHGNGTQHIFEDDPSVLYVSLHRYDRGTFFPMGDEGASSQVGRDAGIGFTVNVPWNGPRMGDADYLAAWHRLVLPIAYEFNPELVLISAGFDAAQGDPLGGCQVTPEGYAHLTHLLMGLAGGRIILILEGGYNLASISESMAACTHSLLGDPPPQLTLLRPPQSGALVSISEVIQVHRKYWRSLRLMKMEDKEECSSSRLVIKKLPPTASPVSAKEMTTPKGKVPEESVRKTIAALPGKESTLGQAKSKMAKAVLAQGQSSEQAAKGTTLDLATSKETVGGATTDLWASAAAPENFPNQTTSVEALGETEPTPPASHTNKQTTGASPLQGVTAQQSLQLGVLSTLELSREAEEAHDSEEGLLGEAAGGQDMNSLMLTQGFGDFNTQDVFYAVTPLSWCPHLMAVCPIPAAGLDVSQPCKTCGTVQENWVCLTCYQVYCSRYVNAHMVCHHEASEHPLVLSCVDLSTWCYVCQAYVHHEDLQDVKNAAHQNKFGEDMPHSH

For `O=C(NO)c1cnc(NC2(c3cccc(F)c3)CCCCC2)nc1` [ACY775, 2-[[1-(3-fluorophenyl)cyclohexyl]amino]-N-hydroxy-5-pyrimidinecarboxamide], the “HDAC6 interaction with LepRb” value at LepRb-HDAC6 interaction is recorded as “blocks this interaction”. Moreover, the “suppression of food intake after a single dose in HDAC6^Agrp-Δ DIO mice” value in the data set on HDAC6 in AgRP neurons (ACY775 10 mg/kg i.p., fasted) is on record as “almost complete resistance to ACY755-induced suppression of food intake”. Further, the “anti-obesity effects in HDAC6^Agrp-Δ vs HDAC6^WT DIO mice” value with HDAC6 in AgRP neurons (chronic treatment) is recorded as “Significantly attenuated effects of ACY775 on all the parameters”. Further, the “food intake in fasted caspase3^on-DMH vs caspase3^off-DMH mice” value in the data set on DMH neurons (10 mg/kg i.p.) is “significantly higher than caspase3^off-DMH mice”. In addition, the “weight and food intake in TRAP2-HDAC6^DMH-Δ and TRAP2-HDAC6^WT mice” value with DMH neurons (2 weeks, 10 mg/kg/day i.p.) was “lost weight and food intake was reduced equally in both groups”. Also, the “c-fos positive cells in DMH” value in the data set on DMH neurons (DIO mice, acute treatment, fasting) is “major increase in c-fos positive cell number”. Moreover, in the data set with DMH neurons (chronic, 10 mg/kg/day i.p.), the “body weight and food consumption in caspase3^on-DMH mice” value is “neither reduced the body weight nor the food consumption”.
Turning to `O=C(CCCCCCNC(=O)c1cnc(N(c2ccccc2)c2ccccc2)nc1)NO` [Ricolinostat], the “penetrance into the hypothalamus” value in data set [1] was “neither of which have high penetrance into the hypothalamus”.

The values are drawn from patent US20240252496A1, “SELECTIVE HYPOTHALAMUS PERMEABLE HDAC6 INHIBITORS FORTREATMENT OF LEPTIN-RESISTANT OBESITY” (The Children’s Medical Center Corporation, priority 2022, published 2024).
